For the assay, the system named is sodium channel response in hTRPV1-N1E115 cells. Put plainly: FLIPR membrane potential assay of sodium channel response in hTRPV1-N1E115 cells with or without heat (47° C.) activation. To be noted: for hTRPV1-N1E Nav 0.1 mM (% inhibition) 25° C. / hTRPV1-N1E Nav 1 mM (% inhibition) 25° C.: 25° C. (no heat activation); for hTRPV1-N1E Nav 0.1 mM (% inhibition) 47° C. / hTRPV1-N1E Nav 1 mM (% inhibition) 47° C.: 47° C. (heat activated); for IC50: 47° C., read-out: hTRPV1-N1E IC50 (μM) 47° C. Format: cell-based. The source says: In one embodiment, a modified FLIPR® (Fluorometric Imaging Plate Reader) based assay system was developed which is capable of discriminating between non-specific versus hTRPV1-mediated entry of test compounds. Advantageously, the assay system utilizes heat activated opening of hTRPV1 channels followed by an assessment of internal sodium channel block. The assay allows a permanently charged compound to selectively enter through opened hTRPV1 channels and that compound's potency in inhibiting sodium channels from the cytoplasm side of the same cell can be assessed and quantified.
The test compounds are diluted in the Assay Buffer and added to each well of a specific 384-well ‘compound plate’, which serves as a source plate for compound addition using the FLIPR® platform. The concentration of compounds in the compound-plate was adjusted to achieve the desired final concentration when added to the cells in the ‘cell-plate’. After completion of the dye incubation period, the dye loaded cell-plates and the compound source plates are inserted into the FLIPR® Tetra device with a 384 FLIPR® tip box (Molecular Devices, Inc.) according to manufacturer's instructions. The compounds are robotically added to the dye loaded cell-plates using software integral to the FLIPR® Tetra instrument.
Immediately following compound addition, hTRPV1 is activated, in one of the duplicate cell plates, by heating. Specifically, entire multi-well plate containing the compound-cells mixture is incubated at 47° C. for 10 minutes, after which they are returned to room temperature (about 25° C.) for a further 30 minutes. Heat activation of hTRPV1 was omitted from the replicate cell plate which was simply maintained at room temperature for the entire 40 minutes.
A membrane potential response is elicited in the dye- and compound-loaded cells by the addition of veratridine which is a known sodium channel ‘agonist’. As illustrated in an example herein, an agonist plate containing veratridine (Sigma) is prepared in advance and is inserted into suitable devices such as, e.g., the FLIPR® TETRA device for a “2nd addition” as instructed by the manufacturer. The concentration of veratridine in the ‘agonist plate’ was adjusted to achieve a final concentration of 100 μM when added to the cells in the cell-plate. Final concentrations of veratridine greater or lesser than 100 μM may also be used but the signal measured by the FLIPR® TETRA device or another suitable device may vary accordingly.
The exposure of the cells in the cell-plate to veratridine induces sodium channels in the cells to open and the resulting ion flux produces a membrane potential depolarization that is detected as a fluorescence signal by the FLIPR® Tetra Device. The activity of test compounds is determined by their ability to attenuate the veratridine-induced fluorescence signal, the most promising compounds are those that show an enhanced activity in the heat-activated cell plate over the non-heat-activated cell plate. This differential activity reflects enhanced compound uptake via the heat activated and open hTRPV1 channels and rests on the fact that sodium channel block requires test compounds to act from the cytoplasmic side of the cell membrane.
In vitro assays were developed for assessing the inhibition of sodium channel response with compounds following stimulation by heat (47° C.) in cells expressing hTRPV1.
(v) Membrane potential Assay to Assess Sodium Channel Function in hTRPV1-Expressing Cells • Cells were plated at 5000 per 50 μL [DMEM+10% FBS+300 μg/mL H\hygromycin] per well, in a 384 clear bottom poly-D-lysine coated plate and incubated at 37° C. and 5% CO2 for 48 hours. On the day of the assay, media were discarded gently and 30 μL of the dye [FMP blue dye was prepared in assay buffer] per well was added and dye-loading was allowed to proceed for 20 min at room temperature. […]

On to `CC(C[N+](C)(C)C1CCCCC1)OC(=O)c1cccn1C.[I-]` (centres unmarked) [Example 34, N,N-Dimethyl-N-[2-((1-methyl-1H-pyrrole-2-carbonyl)oxy)propyl] cyclohexanaminium iodide], for which the “hTRPV1-N1E Nav 0.1 mM (% inhibition) 25° C.” value is on record as 35 (N = 4) %, the “hTRPV1-N1E Nav 0.1 mM (% inhibition) 47° C.” value is given as 36 (N = 4) %, the “hTRPV1-N1E Nav 1 mM (% inhibition) 25° C.” value was 35 (N = 4) % and the “hTRPV1-N1E Nav 1 mM (% inhibition) 47° C.” value is 55 (N = 4) %.
Turning to `Cc1cc(C)c(C(=O)O[C@@H](C)C[N+](C)(C)C2CCCCC2)c(C)c1.[I-]` [Example 22, (S)-N,N-Dimethyl-N-[2-((2,4,6-trimethylbenzoyl)oxy)propyl] cyclohexanaminium iodide], the “hTRPV1-N1E Nav 0.1 mM (% inhibition) 25° C.” value is reported as 33 (N = 4) %, the “hTRPV1-N1E Nav 1 mM (% inhibition) 25° C.” value was 91 (N = 4) % and the IC50 lay in the range of 10 to 100 µM.
For `Cc1cccc(C)c1C(=O)OCC[N+](C)(C)C1CCCCC1.[I-]` [Example 40, N-[2-((2,6-Dimethylbenzoyl)oxy)ethyl]-N,N-dimethylcyclo-hexanaminium iodide], the “hTRPV1-N1E Nav 0.1 mM (% inhibition) 25° C.” value is on record as 10 (N = 4) %, the “hTRPV1-N1E Nav 0.1 mM (% inhibition) 47° C.” value is on record as 43 (N = 4) %, the “hTRPV1-N1E Nav 1 mM (% inhibition) 25° C.” value is recorded as 12 (N = 4) % and the “hTRPV1-N1E Nav 1 mM (% inhibition) 47° C.” value was 80 (N = 4) %.
In the case of `CC(C[N+](C)(C)C1CCCCC1)OC(=O)c1cccc(C(C)C)c1.[I-]` (centres unmarked) [Example 26, N-[2-((3-Isopropylbenzoyl)oxy)propyl]-N,N-dimethylcyclo-hexanaminium iodide], the “hTRPV1-N1E Nav 0.1 mM (% inhibition) 25° C.” value is recorded as 4 (N = 4) %, the “hTRPV1-N1E Nav 0.1 mM (% inhibition) 47° C.” value was 88 (N = 4) %, the “hTRPV1-N1E Nav 1 mM (% inhibition) 25° C.” value is listed as 57 (N = 4) % and the “hTRPV1-N1E Nav 1 mM (% inhibition) 47° C.” value is on record as 89 (N = 4) %. The IC50 lay within 10 to 100 µM.
Consider `CC(C[N+](C)(C)C1CCCCC1)OC(=O)c1ccc(C(F)(F)F)cc1.[I-]` (centres unmarked) [Example 21, N,N-Dimethyl-N-[2-((4-(trifluoromethyl)benzoyl)oxy)propyl] cyclohexanaminium iodide], for which the “hTRPV1-N1E Nav 0.1 mM (% inhibition) 25° C.” value is reported as 11 (N = 4) %, the “hTRPV1-N1E Nav 0.1 mM (% inhibition) 47° C.” value was 57 (N = 4) %, the “hTRPV1-N1E Nav 1 mM (% inhibition) 25° C.” value is on record as 35 (N = 4) % and the “hTRPV1-N1E Nav 1 mM (% inhibition) 47° C.” value is listed as 96 (N = 4) %. The IC50 was 100 to 1000 µM.
On the same counts, the results for `Cc1cccc(C)c1C(=O)OC(C)C[N+](C)(C)C1CCC(C)CC1.[I-]` (centres unmarked) [Example 36, N-[2-((2,6-Dimethylbenzoyl)oxy)propyl]-N,N,4-trimethylcyclo-hexanaminium iodide] are 50 (N = 4) %, 83 (N = 4) %, 84 (N = 4) %, 95 (N = 4) % and 10 to 100 µM.
For `CC(C[N+](C)(C)C1CCCCC1)OC(=O)c1cccs1.[I-]` (centres unmarked) [Example 32, N,N-Dimethyl-N-[2-((thiophene-2-carbonyl)oxy)propyl] cyclohexanaminium iodide], the “hTRPV1-N1E Nav 0.1 mM (% inhibition) 25° C.” value is 4 (N = 4) %, the “hTRPV1-N1E Nav 0.1 mM (% inhibition) 47° C.” value is reported as 48 (N = 4) %, the “hTRPV1-N1E Nav 1 mM (% inhibition) 25° C.” value is listed as 1 (N = 4) % and the “hTRPV1-N1E Nav 1 mM (% inhibition) 47° C.” value is 54 (N = 4) %.
With `Cc1ccc(C(=O)OC(C)C[N+](C)(C)C2CCCCC2)cc1.[I-]` (centres unmarked) [Example 42, N,N-Dimethyl-N-[2-((4-methylbenzoyl)oxy)propyl] cyclohexanaminium iodide], the “hTRPV1-N1E Nav 0.1 mM (% inhibition) 25° C.” value was 8 (N = 4) %, the “hTRPV1-N1E Nav 0.1 mM (% inhibition) 47° C.” value is reported as 45 (N = 4) %, the “hTRPV1-N1E Nav 1 mM (% inhibition) 25° C.” value is recorded as 16 (N = 4) % and the “hTRPV1-N1E Nav 1 mM (% inhibition) 47° C.” value is listed as 90 (N = 4) %. Moreover, the IC50 lay in the range of 10 to 100 µM.
On the same counts, the results for `CC(C[N+](C)(C)C1CCCCC1)OC(=O)c1ccc(Cl)cc1.[I-]` (centres unmarked) [Example 13, N-[2-((4-Chlorobenzoyl)oxy)propyl]-N,N-dimethyl-cyclohexanaminium iodide] are 0 (N = 4) %, 44 (N = 4) %, 51 (N = 4) %, 89 (N = 4) % and 10 to 100 µM.
Take `CC(C[N+](C)(C)C1CCCCC1)OC(=O)c1cccc(F)c1.[I-]` (centres unmarked) [Example 14, N-[2-((3-Fluorobenzoyl)oxy)propyl]-N,N-dimethyl-cyclohexanaminium iodide]: the “hTRPV1-N1E Nav 0.1 mM (% inhibition) 25° C.” value is 0 (N = 4) %, the “hTRPV1-N1E Nav 0.1 mM (% inhibition) 47° C.” value was 31 (N = 4) %, the “hTRPV1-N1E Nav 1 mM (% inhibition) 25° C.” value was 10 (N = 4) % and the “hTRPV1-N1E Nav 1 mM (% inhibition) 47° C.” value was 66 (N = 4) %.
As for `CC(C[N+](C)(C)C1CCCCC1)OC(=O)c1ccc(F)cc1C(F)(F)F.[I-]` (centres unmarked) [Example 15, N-[2-((4-Fluoro-2-(trifluoromethyl)benzoyl)oxy)propyl]-N,N-dimethyl-cyclohexanaminium iodide], the “hTRPV1-N1E Nav 0.1 mM (% inhibition) 25° C.” value was 6 (N = 4) %, the “hTRPV1-N1E Nav 0.1 mM (% inhibition) 47° C.” value is 45 (N = 4) %, the “hTRPV1-N1E Nav 1 mM (% inhibition) 25° C.” value is 59 (N = 4) % and the “hTRPV1-N1E Nav 1 mM (% inhibition) 47° C.” value is recorded as 92 (N = 4) %. Further, the IC50 was 100 to 1000 µM.
In the case of `CC(C[N+](C)(C)C1CCCCC1)OC(=O)c1cc(Cl)cc(Cl)c1.[I-]` (centres unmarked) [Example 19, N-[2-((3,5-Dichlorobenzoyl)oxy)propyl]-N,N-dimethyl-cyclohexanaminium iodide], the “hTRPV1-N1E Nav 0.1 mM (% inhibition) 25° C.” value is given as 25 (N = 4) %, the “hTRPV1-N1E Nav 1 mM (% inhibition) 25° C.” value is 12 (N = 4) %, the “hTRPV1-N1E Nav 1 mM (% inhibition) 47° C.” value is listed as 52 (N = 4) % and the IC50 lay in the range of 10 to 100 µM.
With `Cc1ccsc1C(=O)OC(C)C[N+](C)(C)C1CCCCC1.[I-]` (centres unmarked) [Example 37, N,N-Dimethyl-N-[2-((3-methylthiophene-2-carbonyl)oxy)propyl] cyclohexanaminium iodide], the “hTRPV1-N1E Nav 0.1 mM (% inhibition) 25° C.” value is recorded as 15 (N = 4) %, the “hTRPV1-N1E Nav 0.1 mM (% inhibition) 47° C.” value was 31 (N = 4) %, the “hTRPV1-N1E Nav 1 mM (% inhibition) 25° C.” value is reported as 20 (N = 4) % and the “hTRPV1-N1E Nav 1 mM (% inhibition) 47° C.” value is 70 (N = 4) %.
On the same counts, the results for `CC(C[N+](C)(C)C1CCCCC1)OC(=O)c1ccsc1.[I-]` (centres unmarked) [Example 33, N,N-Dimethyl-N-[2-((thiophene-3-carbonyl)oxy)propyl] cyclohexanaminium iodide] are 3 (N = 4) %, 36 (N = 4) %, 23 (N = 4) % and 57 (N = 4) %.
For `Cc1cc(C)c(C(=O)OC(C)C[N+](C)(C)C2CCOCC2)c(C)c1.[I-]` (centres unmarked) [Example 28, N,N-Dimethyl-N-[2-((2,4,6-trimethylbenzoyl)oxy)propyl]tetrahydro-2H-pyran-4-aminium iodide], the “hTRPV1-N1E Nav 0.1 mM (% inhibition) 25° C.” value is 0 (N = 4) %, the “hTRPV1-N1E Nav 0.1 mM (% inhibition) 47° C.” value is reported as 32 (N = 4) %, the “hTRPV1-N1E Nav 1 mM (% inhibition) 25° C.” value was 5 (N = 4) % and the “hTRPV1-N1E Nav 1 mM (% inhibition) 47° C.” value was 58 (N = 4) %.
In the case of `CC(C[N+](C)(C)C1CCCCC1)OC(=O)c1cc2ccccc2s1.[I-]` (centres unmarked) [Example 35, N-[2-((Benzo[b]thiophene-2-carbonyl)oxy)propyl]-N,N-dimethyl-cyclohexanaminium iodide], the “hTRPV1-N1E Nav 0.1 mM (% inhibition) 25° C.” value was 35 (N = 4) %, the “hTRPV1-N1E Nav 0.1 mM (% inhibition) 47° C.” value is 74 (N = 4) % and the IC50 lay within 10 to 100 µM.
As to `Cc1cccc(C)c1C(=O)O[C@H](C)C[N+](C)(C)C1CCCCC1.[I-]` [Example 24, (R)-N-[2-((2,6-Dimethylbenzoyl)oxy)propyl]-N,N-dimethyl-cyclohexanaminium iodide], the “hTRPV1-N1E Nav 0.1 mM (% inhibition) 25° C.” value was 22 (N = 4) %, the “hTRPV1-N1E Nav 1 mM (% inhibition) 25° C.” value was 81 (N = 4) % and the IC50 is 10 to 100 µM.

The record behind these values is patent US9180115B2, “Cyclohexylamines” (Asana Biosciences, LLC, priority 2011, dated 2015).
